# Experimental data reported in patent publication US20230096766A1, “AMINO ACID HAVING FUNCTIONAL GROUP CAPABLE OF INTERMOLECULAR HYDROGEN BONDING, PEPTIDE COMPOUND CONTAINING SAME AND METHOD FOR PRODUCTION THEREOF” (Chugai Seiyaku Kabushiki Kaisha, priority 2018, published 2023).
# *1 amine or outer side, *2 acyl side, *3 side chain or, on linkers, in order; H or OH if unused. Where a SMILES comes first, the peptide text is derived from it. Bridges are numbered along the chain shown (N, C = ends). [ ]: non-standard residue; d: D form. The star is where a group is joined. ξ: configuration not given here. Phe(3-CONHMe,4-OMe) = CNC(=O)c1cc(C[C@H](N)C(=O)O)ccc1OC; X1 = COc1cc(C[C@H](N[*:1])C(=O)[*:2])ccc1C(=O)NO; NMeAla(4-thiazolyl) = CN[C@@H](Cc1cscn1)C(=O)O; X11 = CNC(=O)c1ccc(CCN(CC(=O)[*:2])[*:1])cc1OC; NMePhe(3-Cl) = CN[C@@H](Cc1cccc(Cl)c1)C(=O)O; ξGln(SO2Me) = CS(=O)(=O)NC(=O)CCC(N)C(=O)O; Tyr(3-F) = N[C@@H](Cc1ccc(O)c(F)c1)C(=O)O; NMehPhe = CN[C@@H](CCc1ccccc1)C(=O)O; X6 = O=C([C@H](CCCCO)N[*:1])[*:2]; Hyp = O=C(O)[C@@H]1C[C@@H](O)CN1; NMeF = CN[C@@H](Cc1ccccc1)C(=O)O; NMeGABA = CN(CCCC(=O)[*:2])[*:1]; NMeI = CC[C@H](C)[C@H](NC)C(=O)O; Butyl(3-Me,3-OH) = CC(C)(O)CC*; CH2CH(OH)CF3 = OC(C*)C(F)(F)F; NMeL = CN[C@@H](CC(C)C)C(=O)O; Propyl(2R-OH) = C[C@@H](O)C*; NMeV = CN[C@H](C(=O)O)C(C)C; NMeA = CN[C@@H](C)C(=O)O; Piperidide = C1CCN(*)CC1; CH2CONHMe = CNC(=O)C*; Me2NCH2CH2 = CN(C)CC*; NBuGly = CCCCNCC(=O)O; Isopentyl = CC(C)CC*; NPrGly = CCCNCC(=O)O; Propyl(3-OH) = OCCC*; Ethyl(2-OH) = OCC*; X3 = C[C@H](O)C*; Sar = CNCC(=O)O; tBu = CC(C)(C)*
# Test: in vitro
# Settings: human, Caco-2, Caco-2
row,SMILES,Papp [×10⁻⁶ cm/s]
1,CCCN1CC(=O)N(C)[C@@H](CC(C)C)C(=O)N[C@@H](COC(C)(C)C)C(=O)N(C)[C@@H](Cc2ccccc2)C(=O)N(C)[C@@H](C(C)C)C(=O)N[C@H](C(=O)N2CCCCC2)CC(=O)N[C@H](C(C)C)C(=O)N(C)[C@@H](Cc2ccccc2)C(=O)N[C@@H](COCCN(C)C)C(=O)N(C)[C@@H](CC(C)C)C(=O)N[C@@H]([C@@H](C)O)C1=O [pd50] ([dV][NMeF]S(Me2NCH2CH2)[NMeL]T[NPrGly][NMeL]S(tBu)[NMeF][NMeV]D-Piperidide; lactam N-11),0.15
2,CCCCN1CC(=O)N(C)[C@@H](Cc2ccccc2)C(=O)NC(CCC(=O)NS(C)(=O)=O)C(=O)N(C)[C@@H](CC(C)C)C(=O)N[C@@H](CC(C)C)C(=O)N(C)CC(=O)N(C)[C@@H](Cc2ccccc2)C(=O)N(C)[C@@H](CC(C)C)C(=O)N[C@@H](CC(C)C)C(=O)N(C)[C@@H](CC(C)C)C(=O)N[C@H](C(=O)N2CCCCC2)CC1=O (stereo partly drawn) [pd70] ([NBuGly][NMeF][ξGln(SO2Me)][NMeL]L[Sar][NMeF][NMeL]L[NMeL]D-Piperidide; lactam N-11),0.17

# Same assay, conditions: human, Caco-2, Caco-2 (cm/sec)
row,SMILES,Papp [×10⁻⁶ cm/s]
1,CCCCN1CC(=O)N(C)[C@@H](CC(C)C)C(=O)N[C@@H](COC(C)(C)C)C(=O)N(C)[C@@H](Cc2ccccc2)C(=O)N(C)[C@@H](CC(C)C)C(=O)N[C@H](C(=O)N2CCCCC2)CC(=O)N[C@H](C(C)C)C(=O)N(C)[C@@H](C(C)C)C(=O)N[C@@H](Cc2ccc(C(=O)NO)c(OC)c2)C(=O)N(C)[C@@H](CC(C)C)C(=O)N[C@@H]([C@@H](C)O)C1=O [AP256] ([dV][NMeV][X1][NMeL]T[NBuGly][NMeL]S(tBu)[NMeF][NMeL]D-Piperidide; lactam N-11),0.08
2,CC(C)C[C@@H]1NC(=O)[C@H](CC(C)C)N(C)C(=O)[C@H](C)N(C)C(=O)C[C@@H](C(=O)N(C)[C@@H](Cc2ccccc2)C(=O)N[C@@H](C)C(=O)N2CCCCC2)NC(=O)[C@H]([C@@H](C)O)NC(=O)[C@H](CC(C)C)N(C)C(=O)[C@H](Cc2ccccc2)NC(=O)[C@H](Cc2ccccc2)N(C)C(=O)[C@H](CC(C)C)N(C)C1=O [pd218] ([NMeA][NMeL]L[NMeL][NMeF]F[NMeL]TD[NMeF]A-Piperidide; lactam N-9),1.1
3,CC[C@H](C)[C@@H]1NC(=O)[C@H](CC(C)C)N(C)C(=O)CCCN(C)C(=O)C[C@@H](C(=O)N2CCCCC2)NC(=O)[C@H](CC(C)C)N(C)C(=O)[C@H](CC(C)C)N(C)C(=O)[C@H]([C@@H](C)O)NC(=O)[C@H](CC(C)C)N(C)C(=O)[C@H](COC[C@H](C)O)NC(=O)[C@H](Cc2cccc(Cl)c2)N(C)C(=O)[C@H](Cc2ccccc2)N(C)C1=O [AP64] ([NMeGABA][NMeL]I[NMeF][NMePhe(3-Cl)]S(X3)[NMeL]T[NMeL][NMeL]D-Piperidide; lactam N-11),0.35
4,"CCCCN1CC(=O)N(C)[C@@H](CC(C)C)C(=O)N(C)[C@@H](CC(C)C)C(=O)N[C@@H](COC(C)(C)C)C(=O)N(C)[C@@H](CC(C)C)C(=O)N[C@H](C(=O)N2CCCCC2)CC(=O)N(C)CC(=O)N(C)[C@@H](Cc2cccc(Cl)c2)C(=O)N[C@@H](Cc2ccc(OC)c(C(=O)NC)c2)C(=O)N(C)[C@@H](CC(C)C)C(=O)N[C@@H]([C@@H](C)O)C1=O [AP41] ([Sar][NMePhe(3-Cl)][Phe(3-CONHMe,4-OMe)][NMeL]T[NBuGly][NMeL][NMeL]S(tBu)[NMeL]D-Piperidide; lactam N-11)",0.45
5,CC(C)C[C@@H]1NC(=O)C[C@@H](C(=O)N2CCCCC2)NC(=O)[C@H](CC(C)C)N(C)C(=O)[C@H](Cc2ccccc2)NC(=O)[C@H](Cc2ccccc2)N(C)C(=O)[C@H]([C@@H](C)O)NC(=O)[C@H](CC(C)C)N(C)C(=O)[C@@H]2C[C@@H](OCCO)CN2C(=O)[C@H](CC(C)C)N(C)C(=O)[C@H](COC(C)(C)C)NC(=O)[C@H](CC(C)C)N(C)C1=O [AP235] (L[NMeL]S(tBu)[NMeL][Hyp](Ethyl(2-OH))[NMeL]T[NMeF]F[NMeL]D-Piperidide; lactam N-11),1.5
6,CC[C@H](C)[C@@H]1NC(=O)[C@H](CC(C)C)N(C)C(=O)[C@@H](CC(C)C)NC(=O)C[C@@H](C(=O)N2CCCCC2)NC(=O)[C@H](CC(C)C)N(C)C(=O)[C@H](Cc2ccccc2)N(C)C(=O)[C@H](COC(C)(C)C)NC(=O)CN(CCc2ccc(C(=O)NC)c(OC)c2)C(=O)CN(C)C(=O)[C@H]([C@@H](C)O)NC(=O)[C@H](CC(C)C)N(C)C1=O [AP221] ([dL][NMeL]I[NMeL]T[Sar][X11]S(tBu)[NMeF][NMeL]D-Piperidide; lactam N-11),0.28
7,CC[C@H](C)[C@@H]1NC(=O)[C@H](CC(C)C)N(C)C(=O)CCCN(C)C(=O)C[C@@H](C(=O)N2CCCCC2)NC(=O)[C@H](CC(C)C)N(C)C(=O)[C@H](CC(C)C)N(C)C(=O)[C@H]([C@@H](C)O)NC(=O)[C@H](CC(C)C)N(C)C(=O)[C@H](COC[C@@H](C)O)NC(=O)[C@H](Cc2cccc(Cl)c2)N(C)C(=O)[C@H](Cc2ccccc2)N(C)C1=O [AP74] ([NMeGABA][NMeL]I[NMeF][NMePhe(3-Cl)]S(Propyl(2R-OH))[NMeL]T[NMeL][NMeL]D-Piperidide; lactam N-11),0.31
8,CCCCN1CC(=O)N(C)[C@@H](Cc2ccccc2)C(=O)N[C@@H](COCCCO)C(=O)N(C)[C@@H](CC(C)C)C(=O)N[C@@H]([C@@H](C)O)C(=O)N(CCCC)CC(=O)N(C)[C@@H](Cc2ccccc2)C(=O)N(C)[C@@H](C(C)C)C(=O)N[C@@H](COC(C)(C)C)C(=O)N(C)[C@@H](CC(C)C)C(=O)N[C@H](C(=O)N2CCCCC2)CC1=O [AP95] ([NBuGly][NMeF]S(Propyl(3-OH))[NMeL]T[NBuGly][NMeF][NMeV]S(tBu)[NMeL]D-Piperidide; lactam N-11),0.69
9,"CC(C)C[C@H]1C(=O)N[C@@H]([C@@H](C)O)C(=O)N(C)CC(=O)N(C)[C@@H](Cc2cccc(Cl)c2)C(=O)N(C)[C@@H](CC(C)C)C(=O)N[C@@H](COC(C)(C)C)C(=O)N(C)[C@@H](CC(C)C)C(=O)N[C@H](C(=O)N2CCCCC2)CC(=O)N(C)CC(=O)N(C)[C@@H](CCc2ccccc2)C(=O)N[C@@H](COCCC(C)(C)O)C(=O)N1C [AP57] ([Sar][NMehPhe]S(Butyl(3-Me,3-OH))[NMeL]T[Sar][NMePhe(3-Cl)][NMeL]S(tBu)[NMeL]D-Piperidide; lactam N-11)",0.83
10,CCCN1CC(=O)N(C)[C@@H](CCc2ccccc2)C(=O)N(C)[C@@H](CC(C)C)C(=O)N[C@@H](COCCC(C)C)C(=O)N(C)[C@@H](CC(C)C)C(=O)N[C@H](C(=O)N2CCCCC2)CC(=O)N(C)CC(=O)N(C)[C@@H](Cc2cccc(Cl)c2)C(=O)N[C@@H](CCCCO)C(=O)N(C)[C@@H](C(C)C)C(=O)N[C@@H]([C@@H](C)O)C1=O [Compound B07] ([Sar][NMePhe(3-Cl)][X6][NMeV]T[NPrGly][NMehPhe][NMeL]S(Isopentyl)[NMeL]D-Piperidide; lactam N-11),0.21
11,CC(C)C[C@@H]1NC(=O)[C@H](Cc2ccccc2)N(C)C(=O)[C@@H](C(C)C)NC(=O)C[C@@H](C(=O)N2CCCCC2)NC(=O)[C@H](CC(C)C)N(C)C(=O)[C@H](CC(C)C)N(C)C(=O)[C@H](Cc2ccc(O)c(F)c2)NC(=O)[C@H](CC(C)C)N(C)C(=O)CN(C)C(=O)[C@H]([C@@H](C)O)NC(=O)[C@H](CC(C)C)N(C)C1=O [pd128] ([dV][NMeF]L[NMeL]T[Sar][NMeL][Tyr(3-F)][NMeL][NMeL]D-Piperidide; lactam N-11),0.17

# Same assay, conditions: human, Caco-2, Caco-2 (cm/sec) Papp
row,SMILES,Papp [×10⁻⁶ cm/s]
1,CC(C)C[C@@H]1NC(=O)[C@H](Cc2ccccc2)N(C)C(=O)[C@H](C)N(C)C(=O)C[C@@H](C(=O)N2CCCCC2)NC(=O)[C@H](CC(C)C)N(C)C(=O)[C@H](Cc2ccccc2)N(C)C(=O)[C@H](Cc2ccccc2)NC(=O)[C@H](Cc2cscn2)N(C)C(=O)[C@H](C)N(C)C(=O)[C@H]([C@@H](C)O)NC(=O)[C@H](CC(C)C)N(C)C1=O [pd226] ([NMeA][NMeF]L[NMeL]T[NMeA][NMeAla(4-thiazolyl)]F[NMeF][NMeL]D-Piperidide; lactam N-11),0.68

# Same assay, conditions: human, Caco-2, Caco-2 (membrane permeability)
row,SMILES,Papp [×10⁻⁶ cm/s]
1,CC(C)C[C@H]1C(=O)N[C@@H](C(C)C)C(=O)N(C)[C@@H](Cc2ccccc2)C(=O)N(C)[C@@H](Cc2ccccc2)C(=O)N[C@@H](COC(C)(C)C)C(=O)N(C)[C@@H](CC(C)C)C(=O)N[C@@H](COCC(O)C(F)(F)F)C(=O)N(C)[C@@H](CC(C)C)C(=O)N(C)[C@@H](CC(C)C)C(=O)N[C@H](C(=O)N2CCCCC2)CC(=O)N(C)CCCC(=O)N1C (stereo partly drawn) [Compound C12] ([NMeGABA][NMeL]V[NMeF][NMeF]S(tBu)[NMeL]S(CH2CH(OH)CF3)[NMeL][NMeL]D-Piperidide; lactam N-11),0.23
2,CCCCN1CC(=O)N(C)[C@@H](CC(C)C)C(=O)N[C@@H](CC(C)C)C(=O)N(C)[C@@H](Cc2ccccc2)C(=O)N(C)[C@@H]([C@@H](C)CC)C(=O)N[C@H](C(=O)N2CCCCC2)CC(=O)N[C@H](CC(C)C)C(=O)N(C)[C@@H](Cc2ccccc2)C(=O)N[C@@H](CCC(=O)NC)C(=O)N(C)[C@@H](CC(C)C)C(=O)N[C@@H]([C@@H](C)O)C1=O [Compound J01] ([dL][NMeF]E(NHMe)[NMeL]T[NBuGly][NMeL]L[NMeF][NMeI]D-Piperidide; lactam N-11),0.062
3,CCCN1CC(=O)N(C)[C@@H](CC(C)C)C(=O)N[C@H](C(=O)N2CCCCC2)CC(=O)N(C)[C@@H](CC(C)C)C(=O)N[C@@H](Cc2ccccc2)C(=O)N(C)[C@@H](CC(C)C)C(=O)N(C)[C@@H](CC(C)C)C(=O)N[C@@H](COCC(=O)NC)C(=O)N(C)[C@@H](CCc2ccccc2)C(=O)N(C)[C@@H](CC(C)C)C(=O)N[C@@H]([C@@H](C)O)C1=O [Compound I04] ([NMeL]F[NMeL][NMeL]S(CH2CONHMe)[NMehPhe][NMeL]T[NPrGly][NMeL]D-Piperidide; lactam N-11),0.55
4,CC(C)C[C@H]1C(=O)N[C@@H](COCC(O)C(F)(F)F)C(=O)N(C)[C@@H](Cc2cccc(Cl)c2)C(=O)N(C)[C@@H](Cc2ccccc2)C(=O)N[C@@H](COC(C)(C)C)C(=O)N(C)[C@@H](CC(C)C)C(=O)N[C@@H]([C@@H](C)O)C(=O)N(C)[C@@H](CC(C)C)C(=O)N(C)[C@@H](CC(C)C)C(=O)N[C@H](C(=O)N2CCCCC2)CC(=O)N(C)CCCC(=O)N1C (stereo partly drawn) [Compound C02] ([NMeGABA][NMeL]S(CH2CH(OH)CF3)[NMePhe(3-Cl)][NMeF]S(tBu)[NMeL]T[NMeL][NMeL]D-Piperidide; lactam N-11),0.19
